Test results reported in patent US20120070445A1, “BRAIN-DERIVED GONADOTROPINS AND COGNITION” (priority 2006, published 2012).

Tests used:
Tg2576 mice [1] = assay: Y-maze performance in aged Tg2576 mice; type: in vivo; settings: 21 month old Tg2576 female mice, 3 months treatment vs placebo/saline, p<0.01
Aβ [2] = assay: Hippocampal Aβ burden (% area stained) in Tg2576 mice; type: in vivo; settings: vs saline-treated, p<0.05
Text: Scale bar, 200 μm. […] In this initial study we used aged animals to 1) circumvent the estrogen issue, since aged mice, like humans show estropause and 2) to examine the effects of LH ablation once the disease is well established.

LH = assay: Serum LH and pituitary LHβ mRNA after leuprolide acetate; type: in vivo, Tg2576 mice
C57/B6 female mice [3] = assay: Y-maze in ovariectomized mice with or without estrogen replacement; type: in vivo; settings: OVX mice
C57/B6 female mice [4] = assay: Morris Water Maze in ovariectomized mice (training and probe trial); type: in vivo; settings: for length of time taken to locate the invisible platform across days (rescue of OVX-associated cognitive decline): OVX mice, three training days
Description: (Significance indicated by: *=P+S vs E+S; #=P+S vs P+L; $=P+S vs SHAM; %=P+S vs E+L; at p<0.05).
Additionally, to further determine the memory function and training success in the animals we measured the capacity of the animals to retain the information learned using a probe trial. In this regard, at the end of the last day of training we removed the platform and let the animals swim for 1 minute.

Tg2576 mice [5] = settings: APP transgenic mice, recent study; cited from earlier work
Aβ [6] = settings: APP transgenic mice, recent study; cited from earlier work
AD patients = settings: high doses, completed phase II trial; cited from earlier work
[7] = Body weight 3 months post-surgery + replacement + drug treatment
Description: In addition we added a SHAM ovariectomized group that received saline and a placebo pallet (n=10). During the last two weeks of the study all animals have been tested for Y-maze and Morris Water Maze performance.

Molecule	cognitive decline (Y-maze % alternations, change from baseline) (Tg2576 mice [1])	Aβ burden, % area stained in the entire hippocampus (Aβ [2])	serum LH (LH; Tg2576 mice, vs saline, P<0.02)	LHβ mRNA expression in the pituitary (LH; mice, 6 and 8 week treatment vs saline)	Y-maze performance (C57/B6 female mice [3]; leuprolide acetate 7.5 mg/kg for 3 months vs saline, specific to placebo replaced group (p=0.005))	length of time taken to locate the invisible platform across days (rescue of OVX-associated cognitive decline) (C57/B6 female mice [4])	learning rate in Morris Water Maze (C57/B6 female mice [4]; independent of replacement regimen, vs saline, p=0.027)	latency to enter NE quadrant, probe trial (C57/B6 female mice [4]; regardless of replacement regimen, 0.041)	distance swam in NE quadrant, probe trial (C57/B6 female mice [4]; regardless of replacement regimen, p=0.003)	number of platform crossings, probe trial (C57/B6 female mice [4]; regardless of replacement regimen, p=0.004)	latency to enter platform location, probe trial (C57/B6 female mice [4]; regardless of replacement regimen, p=0.005)	Y-maze performance (Tg2576 mice [5])	amyloid-β load in the hippocampus (Aβ [6])	cognitive impairment and activities of daily living (AD patients)	Y-maze performance, estrogen-replaced vs placebo replaced (C57/B6 female mice [3]; saline-treated, t=1.841, p=0.07)	Body weight ([7]; OVX + Estrogen, Saline, 3 months post-surgery)	body weight of OVX+estrogen replaced group compared with SHAM ([7]; irrespective of drug treatment)
CCNC(=O)[C@@H]1CCCN1C(=O)[C@H](CCCNC(=N)N)NC(=O)[C@H](CC(C)C)NC(=O)[C@@H](CC(C)C)NC(=O)[C@H](Cc1ccc(O)cc1)NC(=O)[C@H](CO)NC(=O)[C@H](Cc1c[nH]c2ccccc12)NC(=O)[C@H](Cc1c[nH]cn1)NC(=O)[C@@H]1CCC(=O)N1 [leuprolide acetate]	significantly attenuates cognitive decline	significantly lower	significant decline in serum LH	clear decrease in the expression of LHβ mRNA	significantly improved Y-maze performance	as effective as estrogen in rescuing OVX-associated cognition decline	learned at a faster rate	entered that quadrant earlier	swam longer distances	crossed it more times	crossed the invisible platform region more earlier	improves Y-maze performance	decreases amyloid-β load	stabilization in cognitive impairment and activities of daily living			
Estrogen						rescued by estrogen replacement									strong trend	23.5	not different from the SHAM operated group
